From patent US9133158B2, “Bicyclic dihydroisoquinoline-1-one derivatives” (Hoffmann-La Roche Inc., priority 2011, dated 2015)

What was measured:
[1] = target: T1, human CYP11B1 (Homo sapiens, UniProt P15538); assay: G-402 cellular enzyme assay, human CYP11B1 (cortisol release, HTRF); type: cell-based; settings: G-402 cells, 1 μM Deoxycortisol
T1 construct: expressed in transfected cells
T1 sequence (P15538 25-503): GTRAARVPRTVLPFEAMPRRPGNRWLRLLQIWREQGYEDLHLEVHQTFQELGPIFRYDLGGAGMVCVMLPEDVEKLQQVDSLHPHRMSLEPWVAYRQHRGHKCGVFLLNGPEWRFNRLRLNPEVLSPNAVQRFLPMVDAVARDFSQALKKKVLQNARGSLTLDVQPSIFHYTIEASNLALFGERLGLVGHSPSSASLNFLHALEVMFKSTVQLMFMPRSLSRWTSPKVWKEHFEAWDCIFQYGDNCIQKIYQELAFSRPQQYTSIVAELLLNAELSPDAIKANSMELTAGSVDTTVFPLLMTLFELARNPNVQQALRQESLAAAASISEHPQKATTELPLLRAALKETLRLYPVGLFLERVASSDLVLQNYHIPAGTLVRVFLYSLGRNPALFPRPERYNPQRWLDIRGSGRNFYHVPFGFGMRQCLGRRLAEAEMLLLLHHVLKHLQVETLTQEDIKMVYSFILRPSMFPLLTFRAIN
Procedure, shortened: (§1)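 G-402 cells stably expressing human CYP11B1 or CYP11B2 incubated 16 h in DMEM/F12 with 2.5% charcoal-treated FCS, compound, and 1 μM 11-deoxycortisol (B1) or 1 μM deoxycorticosterone (B2). Cortisol (B1) or aldosterone (B2) in supernatant measured by HTRF; EC50 from 4-parameter MMF fit.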

[2] = target: T2, human CYP11B2 (Homo sapiens, UniProt P19099); assay: G-402 cellular enzyme assay, human CYP11B2 (aldosterone release, HTRF); type: cell-based; settings: G-402 cells, 1 μM Deoxycorticosterone
T2 construct: expressed in transfected cells
T2 sequence (P19099 25-503): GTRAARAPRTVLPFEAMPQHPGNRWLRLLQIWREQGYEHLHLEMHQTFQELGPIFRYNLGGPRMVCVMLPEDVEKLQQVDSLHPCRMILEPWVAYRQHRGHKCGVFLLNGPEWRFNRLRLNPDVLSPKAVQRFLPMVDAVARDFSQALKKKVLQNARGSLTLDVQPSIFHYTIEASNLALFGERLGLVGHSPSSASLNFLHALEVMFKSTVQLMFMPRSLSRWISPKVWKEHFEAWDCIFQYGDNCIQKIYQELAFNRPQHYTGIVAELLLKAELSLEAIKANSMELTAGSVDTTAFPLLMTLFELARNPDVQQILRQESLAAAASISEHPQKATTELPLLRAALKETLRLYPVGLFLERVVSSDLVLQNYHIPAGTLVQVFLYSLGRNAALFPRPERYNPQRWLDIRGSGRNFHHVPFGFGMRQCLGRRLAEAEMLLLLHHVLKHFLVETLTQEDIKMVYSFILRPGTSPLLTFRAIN
Procedure, shortened: as §1

Row | SMILES | EC50 [1] | EC50 [2]
1 | O=C1c2ccc(Cl)cc2CCN1c1cncc(CN2CC[C@@H](O)C2)c1 [Example 147, 6-Chloro-2-[5-((R)-3-hydroxy-pyrrolidin-1-ylmethyl)-pyridin-3-yl]-3,4-dihydro-2H-isoquinolin-1-one] | 0.247 µM | 0.0367 µM
2 | CCC1c2cc(Cl)ccc2C(=O)N1c1cncc(-c2ccnn2C)c1 (single isomer, unassigned) [Example 428, (R or S)-5-Chloro-3-ethyl-2-[5-(2-methyl-2H-pyrazol-3-yl)-pyridin-3-yl]-2,3-dihydro-isoindol-1-one] | 0.105 µM | 0.02 µM
3 | COc1cncc(N2CCc3cc(Cl)ccc3C2=O)c1 [Example 10, 6-Chloro-2-(5-methoxy-pyridin-3-yl)-3,4-dihydro-2H-isoquinolin-1-one] | 0.822 µM | 0.026 µM
4 | CC1(COCc2cncc(N3CCc4cc(Cl)ccc4C3=O)c2)CC1 [Example 200, 6-Chloro-2-[5-(1-methyl-cyclopropylmethoxymethyl)-pyridin-3-yl]-3,4-dihydro-2H-isoquinolin-1-one] | 0.315 µM | 0.0325 µM
5 | CC1(C)c2cc(Cl)ccc2C(=O)N1c1cncc(CNC(=O)c2cccnc2Cl)c1 [Example 433, 2-Chloro-N-[5-(6-chloro-1,1-dimethyl-3-oxo-1,3-dihydro-isoindol-2-yl)-pyridin-3-ylmethyl]-nicotinamide] | 1.31 µM | 0.0143 µM
6 | CC1(C)c2cc(C#N)ccc2C(=O)N1c1cncc(CNS(C)(=O)=O)c1 [Example 402, N-[5-(6-Cyano-1,1-dimethyl-3-oxo-1,3-dihydro-isoindol-2-yl)-pyridin-3-ylmethyl]-methane-sulfonamide] | 2.21 µM | 0.0342 µM
7 | CC(O)c1cncc(N2CCc3cc(Cl)ccc3C2=O)c1 (stereo not shown) [Example 13, 6-Chloro-2-[5-(1-hydroxy-ethyl)-pyridin-3-yl]-3,4-dihydro-2H-isoquinolin-1-one] | 0.865 µM | 0.0543 µM
8 | COC[C@@H]1CCCN1Cc1cncc(N2CCc3cc(Cl)ccc3C2=O)c1 [Example 48, 6-Chloro-2-[5-((S)-2-methoxymethyl-pyrrolidin-1-ylmethyl)-pyridin-3-yl]-3,4-dihydro-2H-isoquinolin-1-one] | 1.11 µM | 0.141 µM
9 | CCS(=O)(=O)Nc1cncc(N2CCc3cc(Cl)ccc3C2=O)c1 [Example 218, Ethanesulfonic acid [5-(6-chloro-1-oxo-3,4-dihydro-1H-isoquinolin-2-yl)-pyridin-3-yl]-amide] | 14.3 µM | 1.55 µM
10 | Cc1cnn(C)c1-c1cncc(N2CCc3cc(Cl)ccc3C2=O)c1 [Example 245, 6-Chloro-2-[5-(2,4-dimethyl-2H-pyrazol-3-yl)-pyridin-3-yl]-3,4-dihydro-2H-isoquinolin 1-one] | 0.0257 µM | 0.0011 µM
11 | COc1ccc2c(n1)C(C)(C)N(c1cncc(CNc3cc[nH]n3)c1)C2=O [Example 384, 2-Methoxy-7,7-dimethyl-6-{5-[(1H-pyrazol-3-ylamino)-methyl]-pyridin-3-yl}-6,7-dihydro-pyrrolo[3,4-b]pyridin-5-one] | 3.16 µM | 0.024 µM
12 | O=C1c2ccc(Cl)cc2CCN1c1cncc2cccc([N+](=O)[O-])c12 [Example 286, 6-Chloro-5′-nitro-3,4-dihydro-[2,4′]biisoquinolinyl-1-one] | 3.04 µM | 0.265 µM
13 | Cn1ccnc1C(=O)NCc1cncc(N2C(=O)c3ccc(Cl)cc3C2(C)C)c1 [Example 432, 1-Methyl-1H-imidazole-2-carboxylic acid [5-(6-chloro-1,1-dimethyl-3-oxo-1,3-dihydro-isoindol-2-yl)-pyridin-3-ylmethyl]-amide] | 1.45 µM | 0.0222 µM
14 | CC1(C)c2cc(Cl)ccc2C(=O)N1c1cnccc1Cl [Example 285, 5-Chloro-2-(4-chloro-pyridin-3-yl)-3,3-dimethyl-2,3-dihydro-isoindol-1-one] | 0.356 µM | 0.0076 µM
15 | CC(c1cncc(N2CCc3cc(Cl)ccc3C2=O)c1)n1nccn1 (stereo not shown) [Example 269, 6-Chloro-2-[5-(1-[1,2,3]triazol-2-yl-ethyl)-pyridin-3-yl]-3,4-dihydro-2H-isoquinolin-1-one] | 0.425 µM | 0.0462 µM
16 | CC(c1cncc(N2CCc3cc(Cl)ccc3C2=O)c1)n1ccnc1 (stereo not shown) [Example 270, 6-Chloro-2-[5-(1-imidazol-1-yl-ethyl)-pyridin-3-yl]-3,4-dihydro-2H-isoquinolin-1-one] | 0.0279 µM | 0.0063 µM
17 | O=C1c2ccc(Cl)cc2CCN1c1cncc(Cn2ccnc2C2CC2)c1 [Example 188, 6-Chloro-2-[5-(2-cyclopropyl-imidazol-1-ylmethyl)-pyridin-3-yl]-3,4-dihydro-2H-isoquinolin-1-one] | 4.15 µM | 0.228 µM
18 | NC1CCCc2c1cncc2N1Cc2cc(Cl)ccc2C1=O (stereo not shown) [Example 311, 2-(8-Amino-5,6,7,8-tetrahydro-isoquinolin-4-yl)-5-chloro-2,3-dihydro-isoindol-1-one] | 6.48 µM | 0.813 µM
19 | CC(=O)NCc1cncc(N2CCc3cc(Cl)ccc3C2=O)c1 [Example 153, N-[5-(6-Chloro-1-oxo-3,4-dihydro-1H-isoquinolin-2-yl)-pyridin-3-ylmethyl]-acetamide] | 15 µM | 0.302 µM
20 | O=C1c2ccc(Cl)cc2CCN1c1cncc(-c2cccc(F)c2)c1 [Example 231, 6-Chloro-2-[5-(3-fluoro-phenyl)-pyridin-3-yl]-3,4-dihydro-2H-isoquinolin-1-one] | 0.469 µM | 0.0233 µM
21 | CCS(=O)(=O)NC1CCCc2c1cncc2N1Cc2cc(Cl)ccc2C1=O (single isomer, unassigned; (-)) [Example 317, (−)-Ethanesulfonic acid [(S or R)-4-(5-chloro-1-oxo-1,3-dihydro-isoindol-2-yl)-5,6,7,8-tetrahydro-isoquinolin-8-yl]-amide] | 2.64 µM | 0.109 µM
22 | CC(C)OCc1ccncc1N1CCc2cc(Cl)ccc2C1=O [Example 77, 6-Chloro-2-(4-isopropoxy-methyl-pyridin-3-yl)-3,4-dihydro-2H-isoquinolin-1-one] | 12.8 µM | 0.665 µM
23 | O=C1c2ccc(Cl)cc2CCN1c1cncc(CNc2cc[nH]n2)c1 [Example 262, 6-Chloro-2-{5-[(1H-pyrazol-3-ylamino)-methyl]-pyridin-3-yl}-3,4-dihydro-2H-isoquinolin-1-one] | 0.3 µM | 0.0141 µM
24 | O=C1c2ccc(Cl)cc2CCN1c1cncc(CN2CCS(=O)(=O)CC2)c1 [Example 156, 6-Chloro-2-[5-(1,1-dioxo-1λ^6-thiomorpholin-4-ylmethyl)-pyridin-3-yl]-3,4-dihydro-2H-isoquinolin-1-one] | 0.337 µM | 0.0439 µM
25 | O=C1c2ccc(Cl)cc2CCN1c1cncc(COC2CCC2)c1 [Example 203, 6-Chloro-2-(5-cyclobutoxymethyl-pyridin-3-yl)-3,4-dihydro-2H-isoquinolin-1-one] | 0.212 µM | 0.0224 µM
26 | O=C1c2ccc(Cl)cc2CN1c1cncc(N2CC[C@@H](O)C2)c1 [Example 138, 5-Chloro-2-[5-((R)-3-hydroxy-pyrrolidin-1-yl)-pyridin-3-yl]-2,3-dihydro-isoindol-1-one] | 0.193 µM | 0.0162 µM
27 | O=C1c2ccc(Cl)cc2CCN1c1cncc(Cc2cc(F)cc(F)c2)c1 [Example 211, 6-Chloro-2-[5-(3,5-difluoro-benzyl)-pyridin-3-yl]-3,4-dihydro-2H-isoquinolin-1-one] | 0.0532 µM | 0.0044 µM
28 | CC[C@@H]1c2cc(Cl)ccc2C(=O)N1c1cncc2c1CC[C@@H]2NS(C)(=O)=O (single isomer, unassigned) [Example 367, N-[(S or R)-4-((R or S)-5-Chloro-3-ethyl-1-oxo-1,3-dihydro-isoindol-2-yl)-6,7-dihydro-5H-[2]pyrindin-7-yl]-methanesulfonamide] | 5.24 µM | 0.0621 µM
29 | Cc1cc(-c2cncc(N3CCc4cc(Cl)ccc4C3=O)c2)n(C)n1 [Example 422, 6-Chloro-2-[5-(2,5-dimethyl-2H-pyrazol-3-yl)-pyridin-3-yl]-3,4-dihydro-2H-isoquinolin-1-one] | 11.1 µM | 0.154 µM
